SMILES strings stand for the structures.

The target in one assay is T1, OX1 (Homo sapiens, UniProt O43613).
T1 sequence (O43613 1-425): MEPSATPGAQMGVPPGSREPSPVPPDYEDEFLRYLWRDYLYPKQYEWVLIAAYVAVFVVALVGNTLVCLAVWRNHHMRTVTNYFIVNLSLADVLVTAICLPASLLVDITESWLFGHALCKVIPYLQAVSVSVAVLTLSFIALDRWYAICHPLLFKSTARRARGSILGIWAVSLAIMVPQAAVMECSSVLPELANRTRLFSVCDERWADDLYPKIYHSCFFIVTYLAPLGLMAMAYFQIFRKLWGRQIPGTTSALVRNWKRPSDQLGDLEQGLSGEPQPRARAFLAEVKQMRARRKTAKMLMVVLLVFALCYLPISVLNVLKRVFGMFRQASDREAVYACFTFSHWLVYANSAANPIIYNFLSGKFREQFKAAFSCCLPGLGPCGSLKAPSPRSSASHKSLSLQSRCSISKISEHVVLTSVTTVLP
Put plainly: Measurement of orexin receptor-binding ability ([125I]-OX-A, cell membranes, OX1). More on the design: expressed in transfected cells; host or cells: CHO cells (membrane preparation).
Details: not given
As to the method:
(§1) 1. Measurement of Orexin Receptor-Binding Ability
(§2) The assay was carried out using a 96-well Wheat Germ Agglutinin Flash Plate (PerkinElmer). The volume in a single assay well was 100 ul, and the composition of the reaction solution was as follows:
(§3) 25 mM HEPES (pH 7.5), 1 mM CaCl2, 4.5 mM MgCl2, 0.5% BSA (bovine serum albumin), 0.1% sodium azide, 0.05% Tween-20, and 0.2% DMSO.
(§4) Cell membranes were prepared from recombinant CHO cells that expressed OX2 or OX1. The cell membranes were used in an amount of 5 μg protein/assay. […] Finally, the radioactivity of each well was measured using a scintillation counter (TopCount, PerkinElmer).
As usually defined, the IC50 is the concentration at which inhibition is half-maximal. Consider `Cc1ncc(OCC2(c3ccccc3C)CC2C(=O)Nc2ccc(C#N)cn2)c(C)n1` (centres unmarked) [Example 178], for which the IC50 was 0.769 µM.

Staying with this assay, now noted: membranes of recombinant CHO cells expressing OX1, 0.2 nM [125I]-OX-A; read-out: OX1 (IC50).
For `COCc1nc(C)ncc1OC[C@@]1(c2cc(F)cc(F)c2)C[C@H]1C(=O)Nc1ccc(F)cc1` [Example 219, (1R,2S)-2-(3,5-difluorophenyl)-N-(4-fluorophenyl)-2-{[(4-methoxymethyl-2-methylpyrimidin-5-yl)oxy]methyl}cyclopropanecarboxamide], the IC50 came out at 0.01 µM.

Take `CCc1nc(C)ncc1OC[C@@]1(c2cccc(F)c2)C[C@H]1C(=O)Nc1ccc(F)cc1` [Example 316, (1R,2S)-2-{[(4-ethyl-2-methylpyrimidin-5-yl)oxy]methyl}-2-(3-fluorophenyl)-N-(4-fluorophenyl)cyclopropanecarboxamide]: the IC50 is 0.007 µM.

The next assay concerns the target T2, OX2 (Homo sapiens, UniProt O43614).
T2 sequence (O43614 1-444): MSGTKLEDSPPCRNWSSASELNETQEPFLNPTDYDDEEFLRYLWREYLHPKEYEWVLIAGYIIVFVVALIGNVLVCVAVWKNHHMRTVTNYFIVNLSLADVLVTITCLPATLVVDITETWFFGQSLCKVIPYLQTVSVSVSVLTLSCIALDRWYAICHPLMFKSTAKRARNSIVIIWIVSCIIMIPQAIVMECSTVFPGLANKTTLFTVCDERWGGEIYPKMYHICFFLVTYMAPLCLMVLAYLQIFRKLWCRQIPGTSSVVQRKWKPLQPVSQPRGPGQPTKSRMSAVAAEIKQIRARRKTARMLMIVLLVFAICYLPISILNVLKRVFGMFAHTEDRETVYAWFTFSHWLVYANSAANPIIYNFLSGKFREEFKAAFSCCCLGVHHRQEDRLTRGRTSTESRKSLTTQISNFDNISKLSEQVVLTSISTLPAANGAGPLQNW
Nature of the assay: Measurement of orexin receptor-binding ability ([125I]-OX-A, cell membranes, OX2). Also on record: expressed in transfected cells; host or cells: CHO cells (membrane preparation). Particulars: OX2 (IC50) nM, membranes of recombinant CHO cells expressing OX2, 0.2 nM [125I]-OX-A. As to the method: as §1, §2, §3, §4
As to `COc1cc([C@]2(COc3cnc(C)nc3C)C[C@H]2C(=O)Nc2ccc(F)cn2)ccc1F` [Example 314], the IC50 amounted to 173 nM.

With `COCc1nc(C)ncc1OCC1(c2cccc(Cl)c2)CC1C(=O)Nc1ccc(F)cn1` (centres unmarked) [Example 222], the half-maximal inhibitory concentration (IC50) came out at 68 nM.

In the case of `Cc1ncc(OC[C@@]2(c3cccc(F)c3)C[C@H]2C(=O)Nc2cccc(F)c2)c(C)n1` [Example 83], the IC50 was 14 nM.

Staying with this assay, now noted: membranes of recombinant CHO cells expressing OX2, 0.2 nM [125I]-OX-A; read-out: OX2 (IC50).
With `COCc1nc(C)ncc1OC[C@@]1(c2cc(F)cc(F)c2)C[C@H]1C(=O)Nc1ccc(F)cc1` [Example 219, (1R,2S)-2-(3,5-difluorophenyl)-N-(4-fluorophenyl)-2-{[(4-methoxymethyl-2-methylpyrimidin-5-yl)oxy]methyl}cyclopropanecarboxamide], the IC50 stood at 3 nM.

For the compound `CCc1nc(C)ncc1OC[C@@]1(c2cccc(F)c2)C[C@H]1C(=O)Nc1ccc(F)cc1` [Example 316, (1R,2S)-2-{[(4-ethyl-2-methylpyrimidin-5-yl)oxy]methyl}-2-(3-fluorophenyl)-N-(4-fluorophenyl)cyclopropanecarboxamide], the 50% inhibitory concentration (IC50) came to 1.1 nM.

Turning to `CCc1nc(C)ncc1OC[C@@]1(c2ccc(F)cc2)C[C@H]1C(=O)Nc1ccc(F)cc1` [Example 250], the 50% inhibitory concentration (IC50) is 14 nM.

In the case of `COCc1nc(C)ncc1OC[C@@]1(c2cc(F)cc(OC)c2)C[C@H]1C(=O)Nc1ccccn1` [Example 235, (1R,2S)-2-(3-fluoro-5-methoxyphenyl)-2-[(4-methoxymethyl-2-methylpyrimidin-5-yl)oxymethyl]-N-(pyridin-2-yl)cyclopropanecarboxamide], the IC50 came out at 6 nM.

Consider `COCc1nc(C)ncc1OC[C@@]1(c2ccc(F)c(F)c2)C[C@H]1C(=O)Nc1ccc(F)cc1F` [Example 216, (1R,2S)-N-(2,4-difluorophenyl)-2-(3,4-difluorophenyl)-2-{[(4-methoxymethyl-2-methylpyrimidin-5-yl)oxy]methyl}cyclopropanecarboxamide], for which the 50% inhibitory concentration (IC50) is 7 nM.

Consider `COCc1nc(C)ncc1OC[C@@]1(c2ccccc2)C[C@H]1C(=O)Nc1cc(Cl)ccn1` [Example 143], for which the IC50 was 14 nM.

`CCc1nc(C)ncc1OC[C@@]1(c2ccccc2)C[C@H]1C(=O)Nc1ccc(F)cc1` [Example 124]: the IC50 turned out to be 31 nM.

For `Cc1ncc(OC[C@@]2(c3cc(F)cc(F)c3)C[C@H]2c2nc3ncccc3[nH]2)c(C)n1` [Example 308], the 50% inhibitory concentration (IC50) is 31 nM.

Take `COc1cc(F)cc([C@]2(COc3cnc(C)nc3C)C[C@H]2C(=O)Nc2ccc(Cl)cn2)c1` [Example 255]: the IC50 is 27 nM.

In the case of `COCc1nc(C)ncc1OC[C@@]1(c2ccccc2)C[C@H]1C(=O)Nc1ccc(F)c(F)c1` [Example 150, (1R,2S)-N-(3,4-difluorophenyl)-2-{[(4-methoxymethyl-2-methylpyrimidin-5-yl)oxy]methyl}-2-phenylcyclopropanecarboxamide], the IC50 was determined as 10 nM.

Regarding `COCc1nc(C)ncc1OC[C@@]1(c2cccc(F)c2)C[C@H]1C(=O)Nc1cc(F)ccc1F` [Example 197, (1R,2S)-N-(2,5-difluorophenyl)-2-(3-fluorophenyl)-2-{[(4-methoxymethyl-2-methylpyrimidin-5-yl)oxy]methyl}cyclopropanecarboxamide], the IC50 was 7 nM.

As to `COCc1nc(C)ncc1OC[C@@]1(c2ccc(F)c(OC)c2)C[C@H]1C(=O)Nc1ccc(F)cc1` [Example 237], the IC50 is 31 nM.

On to `COCc1nc(C)ncc1OC[C@@]1(c2cccc(Cl)c2)C[C@H]1C(=O)Nc1cc(C)c(F)cn1` [Example 226, (1R,2S)-2-(3-chlorophenyl)-N-(5-fluoro-4-methylpyridin-2-yl)-2-{[(4-methoxymethyl-2-methylpyrimidin-5-yl)oxy]methyl}cyclopropanecarboxamide], for which the IC50 amounted to 7 nM.

Regarding `Cc1ncc(OC[C@@]2(c3ccc(F)cc3)C[C@H]2C(=O)Nc2ccc(F)c(F)c2)c(C)n1` [Example 106], the IC50 was determined as 19 nM.

In the case of `Cc1ncc(OC[C@@]2(c3ccccc3)C[C@H]2c2nc3cnccc3[nH]2)c(C)n1` [Example 304], the concentration for half-maximal inhibition (IC50) was determined as 90 nM.

As to `COCc1nc(C)ncc1OC[C@@]1(c2ccccc2)C[C@H]1C(=O)Nc1cc(F)ccc1F` [Example 147], the half-inhibitory concentration (IC50) stood at 69 nM.

In the case of `COCCc1nc(C)ncc1OC[C@@]1(c2cccc(F)c2)C[C@H]1C(=O)Nc1ccccn1` [Example 228], the half-inhibitory concentration (IC50) was found to be 45 nM.

`COc1cccc([C@]2(COc3cnc(C)nc3C)C[C@H]2C(=O)Nc2ccccn2)c1` [Example 188]: the IC50 stood at 61 nM.

As to `COc1cc(F)cc(C2(COc3cnc(C)nc3C)CC2C(=O)Nc2ccc(C#N)cn2)c1` (centres unmarked) [Example 253], the IC50 turned out to be 41 nM.

Regarding `COCc1nc(C)ncc1OC[C@@]1(c2ccc(F)c(F)c2)C[C@H]1C(=O)Nc1cc(F)ccc1F` [Example 215], the half-maximal inhibitory concentration (IC50) was determined as 12 nM.

Turning to `COCc1nc(C)ncc1OC[C@@]1(c2ccccc2)C[C@H]1C(=O)Nc1ccc(F)cc1` [Example 149, (1R,2S)-N-(4-fluorophenyl)-2-{[(4-methoxymethyl-2-methylpyrimidin-5-yl)oxy]methyl}-2-phenylcyclopropanecarboxamide], the IC50 came to 10 nM.

Take `COCc1nc(C)ncc1OC[C@@]1(c2ccc(F)cc2)C[C@H]1C(=O)Nc1cccc(F)c1` [Example 208]: the half-maximal inhibitory concentration (IC50) amounted to 11 nM.

`COc1cc([C@]2(COc3cnc(C)nc3C)C[C@H]2C(=O)Nc2ccc(Cl)cn2)ccc1F` [Example 257]: the half-maximal inhibitory concentration (IC50) was 84 nM.

For the compound `COc1cc([C@]2(COc3cnc(C)nc3C)C[C@H]2C(=O)Nc2cc(C)c(F)cn2)ccc1F` [Example 258], the concentration for half-maximal inhibition (IC50) is greater than 60 nM.

With `COCc1nc(C)ncc1OC[C@@]1(c2ccc(F)c(OC)c2)C[C@H]1C(=O)Nc1ccc(F)c(F)c1` [Example 238], the IC50 was 15 nM.

On to `COc1cc(F)cc(C2(COc3cnc(C)nc3C)CC2C(=O)Nc2ccc(F)cc2)c1` (centres unmarked) [Example 252], for which the IC50 was 18 nM.

With `Cc1ncc(OC[C@@]2(c3ccc(F)c(F)c3)C[C@H]2C(=O)Nc2ccc(F)c(F)c2)c(C)n1` [Example 170, (1R,2S)-N,2-bis(3,4-difluorophenyl)-2-{[(2,4-dimethylpyrimidin-5-yl)oxy]methyl}cyclopropanecarboxamide], the half-maximal inhibitory concentration (IC50) came to 7 nM.

Regarding `Cc1ncc(OC[C@@]2(c3cc(F)cc(F)c3)C[C@H]2c2nc3ncc(Cl)cc3[nH]2)c(C)n1` [Example 307], the half-inhibitory concentration (IC50) is 33 nM.

Take `COc1cc(F)cc(C2(COc3cnc(C)nc3C)CC2C(=O)Nc2ccccn2)c1` (centres unmarked) [Example 251]: the IC50 came to 30 nM.

For the compound `COCc1nc(C)ncc1OC[C@@]1(c2cc(F)cc(OC)c2)C[C@H]1C(=O)Nc1ccc(F)cc1` [Example 231, (1R,2S)-2-(3-fluoro-5-methoxyphenyl)-N-(4-fluorophenyl)-2-{[(4-methoxymethyl-2-methylpyrimidin-5-yl)oxy]methyl}cyclopropanecarboxamide], the IC50 was 7 nM.

For the compound `COCc1nc(C)ncc1OC[C@@]1(c2ccc(F)cc2)C[C@H]1C(=O)Nc1cc(F)ccc1F` [Example 210], the 50% inhibitory concentration (IC50) was greater than 60 nM.

Take `COCc1nc(C)ncc1OC[C@@]1(c2ccc(F)c(F)c2)C[C@H]1C(=O)Nc1cccc(F)c1F` [Example 217]: the IC50 was found to be 21 nM.

As to `COCc1nc(C)ncc1OCC1(c2cccc(Cl)c2)CC1C(=O)Nc1ccc(C#N)cn1` (centres unmarked) [Example 227], the concentration for half-maximal inhibition (IC50) worked out at 14 nM.

For `CCc1nc(C)ncc1OC[C@@]1(c2ccc(F)cc2)C[C@H]1C(=O)Nc1cccc(F)c1` [Example 249], the IC50 was 17 nM.

On to `COCc1nc(C)ncc1OC[C@@]1(c2ccc(F)c(F)c2)C[C@H]1C(=O)Nc1ccc(F)c(F)c1` [Example 214, (1R,2S)-N,2-bis(3,4-difluorophenyl)-2-{[(4-methoxymethyl-2-methylpyrimidin-5-yl)oxy]methyl}cyclopropanecarboxamide], for which the concentration for half-maximal inhibition (IC50) came out at 7 nM.

These data come from US8268848B2, “Cyclopropane compound” (Eisai R&D Management Co., Ltd., priority 2010, dated 2012).
